In one assay the test system is human CD16a V176 variant. Nature of the assay: IgG competition assay (AlphaScreen), V variant. The format is binding. As to conditions: N-terminally biotinylated CD16a V176 10 nM, mouse IgG2a acceptor beads. Background: Bead proximity is the source of the signal in Alpha formats.
Another assay deals with human FcγRIII (CD16a) (Homo sapiens, UniProt P08637). Nature of the assay: FcγRIII (CD16a) SPR (Method A). The format is binding. Here is the method:
SPR experiments were performed to determine ka (M^−1s^−1), kd (s^−1), KD (nM) values (where measurable) of various bicyclic peptides to immobilized human FcγRIII proteins.
For analysis of peptide binding, a Biacore 3000 or T200 instrument was used with a CM5 chip (GE Healthcare). Streptavidin was immobilized on the chip using standard amine-coupling chemistry at 25° C. with HBS-N (10 mM HEPES, 0.15 M NaCl, pH 7.4) as the running buffer. Briefly, the carboxymethyl dextran surface was activated with a 7 min injection of a 1:1 ratio of 0.4 M 1-ethyl-3-(3-dimethylaminopropyl) carbodiimide hydrochloride (EDC)/0.1 M N-hydroxy succinimide (NHS) at a flow rate of 10 μl/min. For capture of streptavidin, the protein was diluted to 0.2 mg/ml in 10 mM sodium acetate (pH 4.5) and captured by injecting 120 μl of onto the activated chip surface. Residual activated groups were blocked with a 7 min injection of 1 M ethanolamine (pH 8.5) and biotinylated FcγRIII captured to a level of 400-1,400 RU. Buffer was changed to PBS/0.05% Tween 20 and a dilution series of the peptides was prepared in this buffer with a final DMSO concentration of 0.5%. […] The SPR analysis was run at 25° C. at a flow rate of 50 μl/min with 60 seconds association and dissociation between 60 and 200 seconds. Data were corrected for DMSO excluded volume effects. […]

Assay [1] deals with CD56+ (NK cells) from human PBMCs. The experiment in a line: Flow cytometry binding to PBMCs, CD56+ (NK cell) population. The format is cell-based. As to conditions: FIG. 2A. Here is the method: (§1) The affinity of NKp46 dimeric bicyclic peptides conjugated to Alexa Fluor® 488 to primary healthy peripheral blood mononuclear cells (PBMCs) was evaluated using a flow cytometry assay.
(§2) On the day of the experiment, medium was prepared by supplementing RPMI-1640 (Gibco™ 11875-093; with L-glutamine) with 10% heat-inactivated fetal bovine serum (FBS; Corning® 35-011-CV), 10 mM HEPES (Gibco™ 15-630-080), and 1% Penicillin Streptomycin (Corning™ 30-002-Cl), herein referred to as working medium. Previously isolated human peripheral blood mononuclear cells (PBMCs), from whole blood, were quick thawed in a water bath and washed once at 500 rpm for 5 minutes in 10 mL of prewarmed working medium. […]
(§3) Preparation of samples for flow cytometry: Zombie Aqua™ Fixable Viability Dye (BioLegend® 423102) was prepared as a 1:1000 dilution in PBS and 100 μL of viability dye was added to each well and incubated in the dark at 4° C. for 30 minutes. […] Cells were resuspended in 200 μL of stain buffer and kept at 4° C. in the dark until read by BD FACSCelesta™ flow cytometer.
(§4) Flow cytometry results were analyzed in FlowJo™ software with a gating strategy to evaluate the lymphocyte population then exclude debris, gate on single and live cells only, and determining the geometric mean of the Alexa Fluor® 488 in the CD3+ and CD3−/CD56+ populations. […]

Assay [2] has as its system CD56- CD3+ (T-cell population) from human PBMCs. Nature of the assay: Flow cytometry binding to PBMCs, CD56-/CD3+ (T-cell) population. The format is cell-based. As to conditions: FIG. 2B. Here is the method:
as §1, §2, §3, §4
In general terms: Flow cytometry measures light scatter and fluorescence of single cells or particles in a stream.

human FcγRIII (CD16a), sequence (P08637 17-254): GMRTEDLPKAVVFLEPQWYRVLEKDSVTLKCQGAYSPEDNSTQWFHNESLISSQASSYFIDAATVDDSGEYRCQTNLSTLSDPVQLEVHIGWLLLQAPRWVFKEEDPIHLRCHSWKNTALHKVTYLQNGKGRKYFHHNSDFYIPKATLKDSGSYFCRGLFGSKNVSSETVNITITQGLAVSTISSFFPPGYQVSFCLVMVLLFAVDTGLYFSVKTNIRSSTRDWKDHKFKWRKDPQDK

`C#CCCC(=O)NCCCC[C@H](NC(=O)[C@H](C)NC(=O)[C@@H]1CSCCC(=O)N2CN3CN(C2)C(=O)CCSC[C@H](NC(=O)[C@H](C)N)C(=O)N2CCC[C@H]2C(=O)N2CCC[C@H]2C(=O)N[C@@H]([C@@H](C)O)C(=O)N[C@@H](C(C)C)C(=O)N[C@@H](Cc2ccc(O)cc2)C(=O)N[C@@H](CSCCC3=O)C(=O)N[C@@H](Cc2c[nH]cn2)C(=O)N2CCC[C@H]2C(=O)N[C@@H](CC(C)C)C(=O)N[C@@H](CC(=O)O)C(=O)N1)C(N)=O` [BCY15685, A-(SEQ ID NO: 60)-A-[K(PYA)]]: in the assay on human CD16a V176 variant, the IC50 amounted to 3480 nM.
In the case of `C#CCCC(=O)NCCCC[C@H](NC(=O)[C@H](C)NC(=O)[C@@H]1CSCc2nc3nc(n2)CSC[C@H](NC(=O)[C@@H]2CCCN2C(=O)CNC(=O)[C@H](CC(C)C)NC(=O)[C@H](CCC(=O)O)NC(=O)[C@H](CCC(=O)O)NC(=O)[C@H](CC(C)C)NC(=O)CNC(=O)[C@H](C(C)C)NC(=O)[C@@H](NC(=O)[C@H](C)N)CSC3)C(=O)N[C@@H](CO)C(=O)N[C@@H](CC(=O)O)C(=O)N[C@@H](CC(C)C)C(=O)N1)C(N)=O` [BCY13886, A-(SEQ ID NO: 62)-A-[K(PYA)]], the half-maximal inhibitory concentration (IC50) with human CD16a V176 variant came to 3190 nM. This molecule gave an equilibrium dissociation constant (Kd) at human FcγRIII (CD16a) of 2.2 µM.
As for “BCY15663: AF488 NKp46 homodimer of BCY15452, C-term D-Lys(PYA), linker N-(amine-PEG2)-N-bis(PEG3-azide) (ACYLPDYLCGDEYCAK; not fully specified; D-residues)”, the “binding to CD56+ (NK cell) population of PBMCs (in words)” value in assay [1] is recorded as “dose-dependent binding”. Besides, the “binding to CD56-/CD3+ (T-cell) population of PBMCs (in words)” value in assay [2] is reported as “binding to NK cells only”.

As a reminder, the IC50 is the concentration that gives 50% inhibition. A high value points to weaker potency. Usually Kd stands for a measure of binding affinity in units of concentration. A lower Kd goes with a tighter complex.
